Columns and labels:
[1] = system: MCF7 cells; experiment: MCF7 cell growth inhibition (luminescence-based proliferation assay, CellTiter-Glo)
Procedure: MCF7 cells were obtained from American Type Culture Collection (ATCC). For cell growth assay, MCF7 cells were seeded in 96-well plates at 2000 cells/well in 90 μL of DMEM medium containing 10% fetal bovine serum, and then incubated at 37° C. with 5% CO2 in air overnight. The following day, compound (1-g) and compound (1-h) were administered to the cells by using 1000× compound stock solution prepared in DMSO at concentrations of 3, 1, 0.33, 0.11, 0.037, 0.012, 0.0041, 0.0013, and 0.00046 mM. 1000x compound stock solution was first diluted in culturing medium to 10×, then 10 μL compound medium was added to each well in the cell plates. After administration of compound (1-g) and compound (1-h), the cells were then incubated at 37° C. for 6 days. Upon completion, the plates were equilibrated at room temperature for approximately 10 minutes. 100 μL of CellTiter-Glo® Reagent (Promega) was added to each well. The plates were then incubated at room temperature for 10 minutes and luminescence was recorded by EnSpire plate reader (PerkinElmer).

[2] = system: MCF7 xenograft tumors; experiment: MCF7 xenograft tumors in mice, once daily oral administration; assay type: in vivo; conditions: once daily oral 30 mg/kg/day (lowest dose level evaluated)
[3] = in vivo; conditions: female, rat, po
[4] = system: CYP3A4; experiment: CYP3A4 induction in vitro (activity, mRNA); assay type: in vitro ADME
[5] = target: T1, CYP2B6 (Homo sapiens, UniProt P20813)
T1 sequence (P20813 1-491): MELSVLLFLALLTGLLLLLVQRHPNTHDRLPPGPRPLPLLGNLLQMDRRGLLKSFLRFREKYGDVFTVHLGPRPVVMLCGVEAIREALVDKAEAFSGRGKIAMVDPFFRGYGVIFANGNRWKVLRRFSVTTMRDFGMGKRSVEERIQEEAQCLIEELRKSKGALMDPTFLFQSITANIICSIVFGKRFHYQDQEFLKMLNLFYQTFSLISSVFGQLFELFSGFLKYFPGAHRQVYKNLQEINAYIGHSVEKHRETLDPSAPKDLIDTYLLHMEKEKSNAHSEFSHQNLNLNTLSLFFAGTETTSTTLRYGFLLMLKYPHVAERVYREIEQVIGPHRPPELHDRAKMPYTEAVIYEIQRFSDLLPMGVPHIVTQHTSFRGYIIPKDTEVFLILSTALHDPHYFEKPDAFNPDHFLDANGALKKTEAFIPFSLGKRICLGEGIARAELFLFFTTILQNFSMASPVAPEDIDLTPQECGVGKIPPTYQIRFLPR

[6] = target: T2, CYP2C8 (Homo sapiens, UniProt P10632); experiment: CYP2C8 direct inhibition; assay type: in vitro ADME; conditions: highest concentration evaluated (10 μM)
T2 sequence (P10632 1-490): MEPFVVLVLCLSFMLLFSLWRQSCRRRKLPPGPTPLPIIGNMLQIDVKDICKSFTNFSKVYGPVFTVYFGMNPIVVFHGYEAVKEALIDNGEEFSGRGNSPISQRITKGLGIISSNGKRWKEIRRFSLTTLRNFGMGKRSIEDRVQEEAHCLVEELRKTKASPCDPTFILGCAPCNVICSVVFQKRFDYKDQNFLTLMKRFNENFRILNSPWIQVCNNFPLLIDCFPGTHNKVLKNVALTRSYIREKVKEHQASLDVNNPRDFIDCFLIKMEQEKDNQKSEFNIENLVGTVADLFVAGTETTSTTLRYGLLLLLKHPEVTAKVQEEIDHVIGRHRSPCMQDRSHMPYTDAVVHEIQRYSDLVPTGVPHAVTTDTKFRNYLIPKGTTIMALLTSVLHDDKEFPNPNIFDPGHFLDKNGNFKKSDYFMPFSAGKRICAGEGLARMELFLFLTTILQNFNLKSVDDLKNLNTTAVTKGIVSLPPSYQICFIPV

[7] = system: tamoxifen-resistant MCF7 xenograft; experiment: Tamoxifen-resistant MCF7 xenograft model; assay type: in vivo, mice; conditions: in combination with the CDK4/6 inhibitor palbociclib
[8] = target: human cytochrome P450 CYP3A4 (Homo sapiens, UniProt P08684); experiment: In vitro metabolism by CYP3A4; assay type: in vitro ADME
[9] = Exposure after repeat oral administration in GLP toxicology study, dogs; assay type: in vivo
From the text: There were no marked sex-based differences in exposure, but in the 28-day toxicity study of compound (1-g) in rats, exposures were 1.4 to 1.9-fold higher in female rats compared to males.

[10] = target: human cytochrome P450 CYP3A5 (Homo sapiens, UniProt P20815); experiment: In vitro metabolism by CYP3A5; assay type: in vitro ADME
[11] = system: CYP3A

Chain of human cytochrome P450 CYP3A4 (P08684 whole entry): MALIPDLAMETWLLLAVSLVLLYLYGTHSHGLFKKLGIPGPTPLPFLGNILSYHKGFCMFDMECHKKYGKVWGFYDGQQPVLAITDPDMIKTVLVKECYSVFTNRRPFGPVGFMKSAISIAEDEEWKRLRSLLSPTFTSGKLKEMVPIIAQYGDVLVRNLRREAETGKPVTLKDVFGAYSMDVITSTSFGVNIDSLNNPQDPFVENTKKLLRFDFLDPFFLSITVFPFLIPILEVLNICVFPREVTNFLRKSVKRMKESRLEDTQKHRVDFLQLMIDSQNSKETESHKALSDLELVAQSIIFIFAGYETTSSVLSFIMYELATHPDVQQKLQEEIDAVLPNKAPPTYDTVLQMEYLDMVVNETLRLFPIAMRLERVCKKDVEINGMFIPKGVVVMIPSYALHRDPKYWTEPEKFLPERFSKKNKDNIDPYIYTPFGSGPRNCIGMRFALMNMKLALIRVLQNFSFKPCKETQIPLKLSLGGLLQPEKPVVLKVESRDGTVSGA
Chain of human cytochrome P450 CYP3A5 (P20815 whole entry): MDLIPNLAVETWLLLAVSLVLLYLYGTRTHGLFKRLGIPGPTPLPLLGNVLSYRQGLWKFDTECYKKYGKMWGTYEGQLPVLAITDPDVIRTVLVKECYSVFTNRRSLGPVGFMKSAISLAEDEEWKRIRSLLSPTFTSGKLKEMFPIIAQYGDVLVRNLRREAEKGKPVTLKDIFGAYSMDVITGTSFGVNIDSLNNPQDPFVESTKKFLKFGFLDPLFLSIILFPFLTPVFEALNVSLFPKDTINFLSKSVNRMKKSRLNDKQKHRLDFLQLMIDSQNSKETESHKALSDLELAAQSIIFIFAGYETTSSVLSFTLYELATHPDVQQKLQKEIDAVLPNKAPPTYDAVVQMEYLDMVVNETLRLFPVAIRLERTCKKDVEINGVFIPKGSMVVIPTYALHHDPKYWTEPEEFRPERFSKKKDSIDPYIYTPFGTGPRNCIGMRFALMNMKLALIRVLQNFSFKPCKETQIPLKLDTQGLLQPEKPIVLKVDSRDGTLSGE

Which GI50 ([1]; Homo sapiens, 144 h, MCF7 cells, 6 days, CellTiter-Glo) does the source give for `O=C1CC[C@H](N2Cc3cc(N4CCN(CC5CCN(c6ccc([C@@H]7c8ccc(O)cc8OC[C@@H]7c7ccccc7)cc6F)CC5)CC4)ccc3C2=O)C(=O)N1` [compound (1-g), (S)-3-(5-(4-((1-(2-fluoro-4-((3S,4R)-7-hydroxy-3-phenylchroman-4-yl)phenyl)piperidin-4-yl)methyl)piperazin-1-yl)-1-oxoisoindolin-2-yl)piperidine-2,6-dione] here?
Its GI50 is 6.2 nM.

What about the “reduced the tumor growth by (FIG. 3A/3B)” value ([1]; MCF7 cell proliferation assay) of the same molecule?
The value was “about 50%”.

And the “effect on MCF7 xenograft tumors” value [2]?
Its value is “achieved tumor regression”.

And the AUC ([3]; AUC in the evaluated tissues (compared with plasma))?
The AUC was > 2800 ng·h/mL.

And the AUC ([3]; plasma AUC)?
Its AUC is 2800 ng·h/mL.

What about the “CYP3A4 induction (activity or mRNA expression)” value [4] of the same molecule?
Its value is “did not significantly induce activity or mRNA expression”.

What about the CYP2B6 time-dependent inhibition [5] of the same molecule?
Its CYP2B6 time-dependent inhibition is “without showing time-dependent inhibition”.

What about the CYP2C8 direct inhibition [6] of the same molecule?
The CYP2C8 direct inhibition was “did not directly inhibit”.

And the “anti-tumor activity in combination” value [7]?
Its value is “enhanced anti-tumor activity was observed”.

What about the “metabolism by CYP3A4” value [8] of the same molecule?
Its value is “weakly metabolized”.

What about the “accumulation with repeated dosing” value [9] of the same molecule?
The value was “No significant accumulation”.

What about the “change of exposure following repeat dosing” value ([9]; 45 mg/kg/day) of the same molecule?
Its value is “decreased in females and slightly decreased in males”.

And the “dose proportionality of exposure” value ([9]; 5 to 45 mg/kg/day, repeat administration)?
Its value is “slightly less than dose proportional”.

What about the “exposure (AUC0-24h) versus dose” value ([9]; repeat oral administration) of the same molecule?
Its value is “increased in an approximately dose-dependent manner”.

And the “metabolism by CYP3A5” value [10]?
The value was “weakly metabolized”.

And the “CYP3A time-dependent inhibition” value [11]?
Its value is “weak time-dependent inhibition”.
